We go through four compounds from publication doi:10.1101/2024.09.25.615046, “Identification of SLC45A4 as a pain gene encoding a neuronal polyamine transporter” (bioRxiv, 2024).

One may read the IC50 as the concentration that inhibits the measured activity by half.

Assay [1] concerns the target T1, SLC45A4 (HsSLC45A4) (Homo sapiens, UniProt Q5BKX6).
T1 sequence (Q5BKX6 1-768): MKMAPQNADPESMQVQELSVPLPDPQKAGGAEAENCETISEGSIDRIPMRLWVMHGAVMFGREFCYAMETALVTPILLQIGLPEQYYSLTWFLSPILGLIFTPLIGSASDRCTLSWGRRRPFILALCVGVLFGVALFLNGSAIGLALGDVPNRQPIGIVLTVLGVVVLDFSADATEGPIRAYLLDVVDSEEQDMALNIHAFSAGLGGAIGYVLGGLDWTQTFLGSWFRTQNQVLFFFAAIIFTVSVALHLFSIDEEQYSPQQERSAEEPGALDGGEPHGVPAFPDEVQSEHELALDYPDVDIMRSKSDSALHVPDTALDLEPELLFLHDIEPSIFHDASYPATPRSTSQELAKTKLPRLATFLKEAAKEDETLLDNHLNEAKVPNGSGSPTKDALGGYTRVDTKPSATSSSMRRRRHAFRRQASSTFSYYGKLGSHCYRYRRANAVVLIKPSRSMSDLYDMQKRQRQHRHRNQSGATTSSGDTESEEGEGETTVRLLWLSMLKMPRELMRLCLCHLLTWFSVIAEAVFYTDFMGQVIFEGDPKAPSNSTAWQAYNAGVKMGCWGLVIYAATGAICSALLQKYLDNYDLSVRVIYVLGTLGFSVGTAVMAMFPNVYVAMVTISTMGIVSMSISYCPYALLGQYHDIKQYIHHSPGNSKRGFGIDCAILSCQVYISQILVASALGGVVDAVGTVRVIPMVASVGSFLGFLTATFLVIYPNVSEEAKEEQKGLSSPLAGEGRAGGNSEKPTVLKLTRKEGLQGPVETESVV
As to the kind of experiment: competition of […]-spermidine uptake, Neuro-2A cells. It counts as cell-based. Also on record: full-length; uptake: C-terminal FLAG tag, pLexM, overexpressed in mouse Neuro-2A cells. The conditions noted are these: 1 uM 14C-spermidine, pH 7.5, 37 °C; unreliable unit: printed mM is probably µM (lost symbol font).

Assay [2] addresses T1, SLC45A4 (HsSLC45A4). As to the kind of experiment: nanoDSF thermal shift, purified protein. In kind it is binding. Set-up: full-length; uptake: C-terminal FLAG tag, pLexM, overexpressed in mouse Neuro-2A cells; nanoDSF: purified in DDM:CHS (eGFP-His tag removed by TEV). The note with it: 2.5-50 mM metabolite, DDM:CHS, 150 mM NaCl, 20 mM Tris or MES pH 7.5.

The compound `NCCCCCN` [Cad] had an IC50 in assay [1] of 67 mM. Same read-out and setting: then `NCCCCN` [Put], with 74 mM.

Consider `NCCCCNCCCN` [Spd], for which the thermal stability entry in assay [2] was “polyamines Spm and Spd eliciting the largest response”.

As to `NCCCNCCCCNCCCN` [Spm], the thermal stability result in assay [2] is “polyamines Spm and Spd eliciting the largest response”.
